“And” between values parts separate entries of the source, which are not always exact repeats. Equal values may be shown once. Where a name gives a salt, the structure may show the parent alone. Some results are limits rather than exact numbers.

Test [1] addresses T1, Recombinant human PAD4 (residues 1-663) (Homo sapiens, UniProt Q9UM07).
T1 construct: Recombinant human PAD4 (residues 1-663); GST (N, cleaved yes); made in house; host or cells: E. coli
Description: PAD4 enzyme assay (NH3 release, BAEE substrate, fluorescence). Type of test: biochemical. The following applies: PAD4 enzyme assay above (Conditions A or B) or similar assays; read-out: mean pIC50 (converted). The protocol:
Recombinant human PAD4 (residues 1-663) was expressed in E. coli as an N-terminal GST-tagged fusion protein. During purification of the protein, the GST tag was removed by cleavage with PreScission Protease (GE Healthcare). Activity of the final product was determined using a FLINT NH3 release assay.
(§1) 8 μl of PAD4 enzyme diluted to an assay concentration of 75 nm in assay buffer (a).: (100 mM HEPES, 50 mM NaCl, 2 mM DTT and 0.6 mg/mIBSA pH 8), or in assay buffer (b).: (100 mM HEPES, 50 mM NaCl, 2 mM DTT, 7.5% glycerol and 1.5 mM CHAPS pH 8), and added to wells containing 0.1 μl of various concentrations of compound or DMSO vehicle (0.8% final) in a Greiner high volume 384 well black plate. Following 30 mins pre-incubation at room temperature, the reaction was initiated by the addition of 4 μl of substrate buffer containing 3 mM N-a-benzoyl-L-arginine ethyl ester (BAEE), 100 mM HEPES, 50 mM NaCl, 600 uM CaCl2 (2H2O) and 2 mM DTT, pH 8.0. The reaction was stopped after 100 mins with the addition of 38 μl stop/detection buffer containing 50 mM EDTA, 2.6 mM phthalaldehyde and 2.6 mM DTT. Assay incubated at room temperature for 90 mins before measuring fluorescent signal (λex 413/λem 476) on an Envision plate reader (Perkin Elmer Life Sciences, Waltham, Mass., USA)
as §1, with “of 30 nM” for “of 75 nm”, “buffer” for “buffer (a).:”, “mg/mIBSA” for “mg/mIBSA pH 8), or in assay buffer (b).: (100 mM HEPES, 50 mM NaCl, 2 mM DTT, 7.5% glycerol and 1.5 mM CHAPS”, “after 60” for “after 100”, “(λex 405/λem 460)” for “(λex 413/λem 476)”

Test [2] deals with T2, Recombinant human PAD2 (residues 1-665) (Homo sapiens, UniProt Q9Y2J8).
T2 construct: Recombinant human PAD2 (residues 1-665); 6His-FLAG (N); made in house; host or cells: baculovirus-infected Sf9 insect cells
T2 sequence (Q9Y2J8 whole entry, the tested form may be a part): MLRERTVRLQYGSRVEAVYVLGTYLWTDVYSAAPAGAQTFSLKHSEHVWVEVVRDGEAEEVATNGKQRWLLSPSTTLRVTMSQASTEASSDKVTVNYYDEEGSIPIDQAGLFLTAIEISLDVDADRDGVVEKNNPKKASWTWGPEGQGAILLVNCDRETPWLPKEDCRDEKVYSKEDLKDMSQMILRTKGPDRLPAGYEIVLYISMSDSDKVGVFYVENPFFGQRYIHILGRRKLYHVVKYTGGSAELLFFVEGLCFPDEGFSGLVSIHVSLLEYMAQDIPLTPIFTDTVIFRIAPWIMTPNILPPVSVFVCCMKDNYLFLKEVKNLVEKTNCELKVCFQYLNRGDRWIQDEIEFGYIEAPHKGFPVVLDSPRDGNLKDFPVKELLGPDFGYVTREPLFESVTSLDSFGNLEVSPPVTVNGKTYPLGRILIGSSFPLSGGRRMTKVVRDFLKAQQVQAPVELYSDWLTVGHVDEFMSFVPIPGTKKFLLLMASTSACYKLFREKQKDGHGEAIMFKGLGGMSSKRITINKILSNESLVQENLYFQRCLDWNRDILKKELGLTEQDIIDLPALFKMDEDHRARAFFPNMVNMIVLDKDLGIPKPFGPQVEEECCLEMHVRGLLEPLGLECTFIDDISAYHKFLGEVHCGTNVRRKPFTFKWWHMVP
Description: PAD2 enzyme assay (NH3 release, BAEE substrate, fluorescence). The test is classed as biochemical. The following applies: PAD2 enzyme assay above or similar assays; read-out: mean pIC50 (converted). The protocol: Recombinant human PAD2 (residues 1-665) was expressed in baculovirus-infected Sf9 insect cells as an N-terminal 6His-FLAG-tagged fusion protein. Activity of the final product was determined using a FLINT NH3 release assay.
8 μl of PAD2 enzyme diluted to an assay concentration of 30 nM in assay buffer (100 mM HEPES, 50 mM NaCl, 2 mM DTT, 7.5% glycerol and 1.5 mM CHAPS pH 8), and added to wells containing 0.1 μl of various concentrations of compound or DMSO vehicle (0.8% final) in a Greiner high volume 384 well black plate. Following 30 mins pre-incubation at room temperature, the reaction was initiated by the addition of 4 μl of substrate buffer containing 180 uM N-a-benzoyl-L-arginine ethyl ester (BAEE), 100 mM HEPES, 50 mM NaCl, 240 uM CaCl2 (2H2O) and 2 mM DTT, pH 8.0. The reaction was stopped after 90 mins with the addition of 38 μl stop/detection buffer containing 50 mM EDTA, 2.6 mM phthalaldehyde and 2.6 mM DTT. Assay incubated at room temperature for 90 mins before measuring fluorescent signal (λex 405/λem 460) on an Envision plate reader (Perkin Elmer Life Sciences, Waltham, Mass., USA)

T1 sequence (Q9UM07 whole entry, the tested form may be a part): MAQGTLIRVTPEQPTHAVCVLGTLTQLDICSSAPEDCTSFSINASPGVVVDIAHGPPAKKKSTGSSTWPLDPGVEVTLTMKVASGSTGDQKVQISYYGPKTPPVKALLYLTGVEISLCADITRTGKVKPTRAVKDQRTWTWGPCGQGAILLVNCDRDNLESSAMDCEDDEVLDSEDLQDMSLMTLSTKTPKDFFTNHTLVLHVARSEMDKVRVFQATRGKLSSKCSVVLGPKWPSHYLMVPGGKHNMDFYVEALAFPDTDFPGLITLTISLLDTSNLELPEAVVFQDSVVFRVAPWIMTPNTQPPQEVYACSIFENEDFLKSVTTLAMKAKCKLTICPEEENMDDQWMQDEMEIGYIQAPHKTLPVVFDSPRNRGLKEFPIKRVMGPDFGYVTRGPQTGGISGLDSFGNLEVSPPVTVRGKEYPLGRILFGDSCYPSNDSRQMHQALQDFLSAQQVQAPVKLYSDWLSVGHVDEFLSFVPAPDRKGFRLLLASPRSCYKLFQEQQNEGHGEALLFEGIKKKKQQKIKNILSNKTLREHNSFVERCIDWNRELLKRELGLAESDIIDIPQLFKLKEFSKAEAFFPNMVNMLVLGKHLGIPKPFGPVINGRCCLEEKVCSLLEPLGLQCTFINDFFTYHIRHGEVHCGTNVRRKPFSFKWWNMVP

Take `Cn1c(-c2cc3cccnc3n2CC2CC2)nc2cc(C(=O)N3CC[C@@H](O)[C@@H](N)C3)ccc21` [Example 13, ((3S,4R)-3-Amino-4-hydroxypiperidin-1-yl)(2-(1-(cyclopropylmethyl)-1H-pyrrolo[2,3-b]pyridin-2-yl)-1-methyl-1H-benzo[d]imidazol-5-yl)methanone, hydrochloride]: the IC50 in test [1] is 0.0316 to 10 µM; in test [2], 63.1 to 79.4 µM.

Regarding `COc1cc(C(=O)N2CCC[C@@H](N)C2)cc2nc(-c3cc4cccnc4n3CC3CC3)n(C)c12` [Example 10B, (R)-(3-Aminopiperidin-1-yl)(2-(1-(cyclopropylmethyl)-1H-pyrrolo[2,3-b]pyridin-2-yl)-7-methoxy-1-methyl-1H-benzo[d]imidazol-5-yl)methanone, hydrochloride], the IC50 in test [1] was 0.0316 to 10 µM and 0.0501 µM; in test [2], 63.1 to 79.4 µM and > 79.4 µM.

On to `COc1cc(C(=O)N2CCC[C@@H](N)C2)cc2nc(-c3cc4cccnc4n3CC(C)C)n(C)c12` [Example 22, (R)-(3-Aminopiperidin-1-yl)(2-(1-isobutyl-1H-pyrrolo[2,3-b]pyridin-2-yl)-7-methoxy-1-methyl-1H-benzo[d]imidazol-5-yl)methanone, hydrochloride], for which the figures for the IC50 in test [1] and in test [2] were 0.0316 to 10 µM and 63.1 to 79.4 µM, respectively.

As for `CCn1c(-c2nc3cc(C(=O)N4CCC[C@H](N)C4)cc(OC)c3n2C)cc2cccnc21` [Example 19, (S)-(3-Aminopiperidin-1-yl)(2-(1-ethyl-1H-pyrrolo[2,3-b]pyridin-2-yl)-7-methoxy-1-methyl-1H-benzo[d]imidazol-5-yl)methanone, hydrochloride], the IC50 in test [1] is 0.0316 to 10 µM; in test [2] it was 63.1 to 79.4 µM.

Regarding `COc1cc(C(=O)N2CCC[C@@H](N)C2)cc2nc(-c3cc4cccnc4n3CC(F)(F)F)n(C)c12` [Example 11B, (R)-(3-Aminopiperidin-1-yl)(7-methoxy-1-methyl-2-(1-(2,2,2-trifluoroethyl)-1H-pyrrolo[2,3-b]pyridin-2-yl)-1H-benzo[d]imidazol-5-yl)methanone, hydrochloride], the IC50 was 0.0316 to 10 µM and 0.126 µM in test [1]; 63.1 to 79.4 µM and > 79.4 µM in test [2].

Consider `COc1cc(C(=O)N2CC[C@@H](O)[C@@H](N)C2)cc2nc(-c3cc4cccnc4n3CC3CC3)n(C)c12` [Example 14, ((3S,4R)-3-Amino-4-hydroxypiperidin-1-yl)(2-(1-(cyclopropylmethyl)-1H-pyrrolo[2,3-b]pyridin-2-yl)-7-methoxy-1-methyl-1H-benzo[d]imidazol-5-yl)methanone, hydrochloride], for which the IC50 is 0.0316 to 10 µM and 0.0794 µM in test [1]; more than 79.4 µM in test [2].

In the case of `Cn1c(-c2cc3cccnc3n2CC2CC2)nc2cc(C(=O)N3CCC[C@@H](N)C3)ccc21` [Example 5B, (R)-(3-Aminopiperidin-1-yl)(2-(1-(cyclopropylmethyl)-1H-pyrrolo[2,3-b]pyridin-2-yl)-1-methyl-1H-benzo[d]imidazol-5-yl)methanone, hydrochloride], the IC50 is 0.0316 to 10 µM and 0.2 µM in test [1]; 63.1 to 79.4 µM and > 79.4 µM in test [2].

These data come from patent publication US9127003B2, “2-(azaindol-2-yl)benzimidazoles as PAD4 inhibitors” (Glaxo Group Limited, priority 2012, dated 2015).
